Results taken from publication PMC6990966, “Treatment of Porphyromonas gulae infection and downstream pathology in the aged dog by lysine‐gingipain inhibitor COR388” (Pharmacology Research & Perspectives, 2020).
Read-outs that look alike come from different tables or passages of the source.

Tests used:
RgpB = assay: Rgp enzyme activity assay in SGP of dosed dogs; assay type: in vivo, Beagle dogs; settings: oral 10 mg kg^−1 q.d. for 28 days
Method: (§1) Aged Beagle dogs of both sexes ranging from 8 to 15 years of age, in generally good health and located in the Vivocore Inc dog colony, were utilized in this study. All procedures were reviewed and approved by Vivocore's Institutional Animal Care and Use Committee (IACUC) and were performed in accordance with the principles of the Animal for Research Act of Ontario and the guidelines of Canadian Council on Animal Care (CCAC). Structure‐based design was used to develop a library of gingipain inhibitors, which were tested on purified Kgp and RgpB to assess potency and determine inhibition constants. The detailed chemical synthesis and structure of compounds in the relevant series of lysine‐gingipain inhibitors including COR388 can be found in PCT/2016/0061197. […] In the first study, four dogs were dosed 10 mg kg^−1 q.d. with endpoints assessed after dosing and compared to those taken pre‐dose in individual dogs. […]
For the detection of arginine‐gingipain (Rgp) activity, cysteine‐HCl was freshly added to RgpB buffer (100 mmol L^−1 Tris, 200 mmol L^−1 gly‐gly, 5 mmol L^−1 CaCl2) to a final concentration of 10 mmol L^−1 to produce a RgpB working enzyme assay buffer. […] After 50 μL of substrate solution was added, the plate was immediately read at 405 nm for 1 hour with interval of every 1.5 minutes read at 37°C and continuous shaking in Biotek Synergy 2 microplate reader. […]

[1] = system: periodontal disease (pocket depth); assay: Dental assessment of gingival pocket depth; assay type: in vivo, Beagle dogs; settings: oral 0.5 mg kg^−1 b.i.d., day 90 vs baseline
Method: Aged Beagle dogs of both sexes ranging from 8 to 15 years of age, in generally good health and located in the Vivocore Inc dog colony, were utilized in this study. All procedures were reviewed and approved by Vivocore's Institutional Animal Care and Use Committee (IACUC) and were performed in accordance with the principles of the Animal for Research Act of Ontario and the guidelines of Canadian Council on Animal Care (CCAC). Structure‐based design was used to develop a library of gingipain inhibitors, which were tested on purified Kgp and RgpB to assess potency and determine inhibition constants. The detailed chemical synthesis and structure of compounds in the relevant series of lysine‐gingipain inhibitors including COR388 can be found in PCT/2016/0061197. Detailed characterization of COR388 enzyme target binding, potency, and selectivity are previously described.1 Test article administered, COR388 HCl, was a solid powdered material. Dogs were dosed with neat compound hand‐filled in gelatin capsules (size 1, Torpac) orally at the listed doses (free‐base, corrected for salt form). All dogs utilized in studies were positive on previous BANA enzyme (BANAMet LLC, Ann Arbor, MI) testing of oral plaque samples (assay described below). In the first study, four dogs were dosed 10 mg kg^−1 q.d. with endpoints assessed after dosing and compared to those taken pre‐dose in individual dogs. […]

[2] = Plasma pharmacokinetics after oral administration in gelatin capsules; assay type: in vivo, Beagle dogs; settings: Beagle, dog; for bioavailability: po, 0.5 mg/kg
Method: Aged Beagle dogs of both sexes ranging from 8 to 15 years of age, in generally good health and located in the Vivocore Inc dog colony, were utilized in this study. All procedures were reviewed and approved by Vivocore's Institutional Animal Care and Use Committee (IACUC) and were performed in accordance with the principles of the Animal for Research Act of Ontario and the guidelines of Canadian Council on Animal Care (CCAC). […] The detailed chemical synthesis and structure of compounds in the relevant series of lysine-gingipain inhibitors including COR388 can be found in PCT/2016/0061197. Detailed characterization of COR388 enzyme target binding, potency, and selectivity are previously described.1 Test article administered, COR388 HCl, was a solid powdered material. Dogs were dosed with neat compound hand-filled in gelatin capsules (size 1, Torpac) orally at the listed doses (free-base, corrected for salt form). All dogs utilized in studies were positive on previous BANA enzyme (BANAMet LLC, Ann Arbor, MI) testing of oral plaque samples (assay described below). In the first study, four dogs were dosed 10 mg kg^-1 q.d. with endpoints assessed after dosing and compared to those taken pre-dose in individual dogs. The second dose-response study was conducted with a randomized, blinded, matched-group design with 12 dogs. […] Groups were balanced for age, sex, weight, and baseline BANA test results to the extent possible. Dogs were group housed according to dosing group in compliance with the recommendations of the CACC. Dogs were fed a standard commercial dry diet daily in the evenings with water provided ad libitum but not within 30 minutes of the start of anesthetic procedures. For evaluation of pharmacokinetics parameters, approximately 2 mL of blood was collected at the indicated time points following test article administration into K2EDTA tubes and plasma was isolated for bioanalytical determination of plasma concentrations of COR388. A single intravenous dose of COR388 was administered in PBS at a dose of 1 mg kg^-1. Quantitation of COR388 in plasma samples following protein precipitation with mianserin added as an internal standard, was performed from the time points shown using a qualified LC-MS/MS method (AB Sciex 4000 QTrap). Plasma concentration versus time profiles were analyzed to determine pharmacokinetic parameters using noncompartmental methods (Phoenix® WinNonlin® 6.3, Pharsight Certara).

P. gingivalis cultures = P. gingivalis cultures in vitro; cited from earlier work
Kgp = Kgp activity in GCF of dosed dogs using COR553 activity-based probe; assay type: in vivo, Beagle dogs
Method: Aged Beagle dogs of both sexes ranging from 8 to 15 years of age, in generally good health and located in the Vivocore Inc dog colony, were utilized in this study. All procedures were reviewed and approved by Vivocore's Institutional Animal Care and Use Committee (IACUC) and were performed in accordance with the principles of the Animal for Research Act of Ontario and the guidelines of Canadian Council on Animal Care (CCAC). Structure‐based design was used to develop a library of gingipain inhibitors, which were tested on purified Kgp and RgpB to assess potency and determine inhibition constants. The detailed chemical synthesis and structure of compounds in the relevant series of lysine‐gingipain inhibitors including COR388 can be found in PCT/2016/0061197. Detailed characterization of COR388 enzyme target binding, potency, and selectivity are previously described.1 Test article administered, COR388 HCl, was a solid powdered material. Dogs were dosed with neat compound hand‐filled in gelatin capsules (size 1, Torpac) orally at the listed doses (free‐base, corrected for salt form). All dogs utilized in studies were positive on previous BANA enzyme (BANAMet LLC, Ann Arbor, MI) testing of oral plaque samples (assay described below). In the first study, four dogs were dosed 10 mg kg^−1 q.d. with endpoints assessed after dosing and compared to those taken pre‐dose in individual dogs. The second dose‐response study was conducted with a randomized, blinded, matched‐group design with 12 dogs. Following baseline sample collections prior to dosing, animals were allocated to four dosing groups, n = 3 dogs per group as follows: vehicle (empty capsule), 0.15, 0.5, and 1.5 mg kg^−1 b.i.d (Q12h). Dosing continued for 28 days (0.15 and 1.5 mg kg^−1) or 90 days (vehicle and 0.5 mg kg^−1). Groups were balanced for age, sex, weight, and baseline BANA test results to the extent possible. Dogs were group housed according to dosing group in compliance with the recommendations of the CACC. Dogs were fed a standard commercial dry diet daily in the evenings with water provided ad libitum but not within 30 minutes of the start of anesthetic procedures.
Gingival Crevicular Fluid: GCF was collected from the gingival pockets at times following dosing ±30 minutes, as indicated. Eight sampling sites were identified per dog and four sites were used per timepoint. Sampling sites were isolated with a cotton roll and air‐dried. Gingival fluid collection strips (Periopaper™, Oraflow) were gently held with tweezers and placed into the pocket until resistance was felt. Strips were held in place for 30 seconds and then processed as described above for SGP isolation. […]

[3] = Plasma pharmacokinetics after single intravenous dose; assay type: in vivo, Beagle dogs; settings: both sexes, Beagle, dog, single intravenous dose 1 mg kg^−1 in PBS, mean ± SD
[4] = parameters: method as in PMID 30746447; settings: mice; cited from earlier work
P. gulae = assay: qPCR detection of P. gulae load in oral samples of naturally infected aged dogs; assay type: in vivo, Beagle dogs
Method: as §1, with “constants.” for “constants. The detailed chemical synthesis and structure of compounds in the relevant series of lysine‐gingipain inhibitors including COR388 can be found in PCT/2016/0061197.”
Biofluids were evaluated for P. gulae load using a qPCR assay that was developed to specifically detect P. gulae 16S gene with the following primers and probe: Forward primer […], Reverse primer […], and probe […]. […] Saliva was evaluated with either 2 μL neat saliva or purified DNA from 2 μL saliva. Buccal cells were evaluated with either 2 μL neat buccal cell slurry or purified DNA from 2 μL buccal cell slurry. SGP was evaluated with 2 μL from the elution in B‐Per. GCF was evaluated with either purified DNA from 50 μL of B‐Per eluted GCF or neat 2 μL elution.

For `NCCCC[C@H](NC(=O)C1CCCC1)C(=O)COc1c(F)ccc(F)c1F` [COR388], the “active RgpB in SGP versus baseline day 1” value (RgpB) was “reduction”, the “mean average pocket depth, all individual pockets” value ([1]; P = .0156) was “reduction” and the “mean average pocket depth, pockets ≥3 mm at baseline or end of study, per dog” value ([1]; P = .0332) was “significant reduction”. It also gave a Cmax ([2]; oral 0.15 mg kg^−1 b.i.d. group, single dog with minimal Kgp inhibition, read-out: plasma Cmax of the one dog with lowest exposure) of 2.73 ng/mL, a Tmax ([2]; both sexes, 0.5 mg kg^-1 oral, single oral dose (Figure 2C), mean ± SD) of 2.17 ± 1.76 h and a half-life ([2]; both sexes, 0.5 mg kg^-1 oral, single oral dose (Figure 2C), mean ± SD, read-out: Apparent t1/2 (converted)) of 145 ± 14.2 min. The concentration at 12 h ([2]; both sexes, 12 hours after oral dosing of 0.5 mg kg^−1, read-out: mean trough plasma concentration (Cmin)) was 2.67 ng/mL, the Cmax ([2]; both sexes, oral 0.15 mg kg^−1 b.i.d. group, read-out: mean Cmax in dose group) was 9.74 ng/mL and the AUC(0-t) ([2]; both sexes, oral 0.5 mg kg^−1 administered b.i.d. for 6 days, read-out: AUC0-12 h) was 265 ng·h/mL. It also gave a Cmax ([2]; both sexes, oral 0.5 mg kg^−1 administered b.i.d. for 6 days, read-out: Cmax) of 66.6 ng/mL, a bioavailability ([2]; both sexes, 0.5 mg kg^-1 oral, single oral dose (Figure 2C), mean ± SD, read-out: F) of 105 ± 28.8% and a bioavailability ([2]; both sexes, oral doses of 0.5 mg kg^−1 and higher, read-out: bioavailability (%F)) of 100%. For the same molecule, the “drug resistance on chronic administration” value (P. gingivalis cultures) was “did not lead to drug resistance”, the “inhibition of baseline Kgp activity” value (Kgp; oral 0.5 mg kg^−1, after a single dose) was “roughly 50%” and the “Kgp activity compared to vehicle control” value (Kgp; oral 0.5 mg kg^−1 b.i.d. for 90 days) was “statistically significant reduction”. For the same molecule, the “inhibition of baseline Kgp activity” value (Kgp; oral 0.5 mg kg^−1 b.i.d., after 28 days of dosing) was “near complete inhibition”, the “active Kgp available for COR553 probe binding” value (Kgp; oral 10 mg kg^−1 q.d., 2 hours after dosing on days 14 and 28) was “no active sites were available for probe binding” and the half-life ([3]; read-out: elimination half-life (converted)) was 210 ± 36 min. The clearance ([3]; read-out: systemic clearance (CLS) (converted)) was 35 mL/min/kg, the Vd ([3]; read-out: volume distribution (Vss)) was 5.2 ± 1.3 L/kg and the brain penetration [4] was “brain penetrant”. For the same molecule, the “mean decrease in baseline P. gulae DNA” value (P. gulae; buccal cells, oral 10 mg kg^−1 once a day, after 14 days of dosing) was > 80% and the “P. gulae bacterial load over time compared to vehicle control” value (P. gulae; oral 0.5 mg kg^−1 b.i.d. for 90 days, buccal cells (Figure 5A)) was “statistically significant reduction”.
